Measurements reported in US10039839B2, “Compounds that participate in cooperative binding and uses thereof” (Warp Drive Bio, Inc., priority 2015, dated 2018).
Square brackets hold non-standard residues; d marks the D form. Peptide text beside a SMILES is read from it. MeBmt = C/C=C/C[C@@H](C)[C@@H](O)[C@H](NC)C(=O)O; NMepY = CN[C@@H](Cc1ccc(OP(=O)(O)O)cc1)C(=O)O; NMeL = CN[C@@H](CC(C)C)C(=O)O; NMeV = CN[C@H](C(=O)O)C(C)C; Abu = CC[C@H](N)C(=O)O; Sar = CNCC(=O)O

Experiments:
HeLa-Cyclophilin A cells = test: Biosensor cell permeability assay, cyclophilin binding compounds; format: cell-based; details: 72 hrs
Experimental: This protocol utilizes a modified FKBP or cyclophilin destabilizing mutant to determine the bioactivity of FKBP binding compounds or cyclophilin binding compounds in whole cell assay.
Plate HeLa-FKBP12 cells (for FKBP binding compounds) or HeLa-Cyclophilin A cells (for cyclophilin binding compounds) and seed overnight at 5 k/well (approximately ˜18 hrs.). Using a multi-channel pipet, take out the old media and add ˜125 ul of new media with compounds. Compounds are diluted using DMEM without Phenol Red, 10% FBS, 1× Sodium Pyruvate, 1× Glutamax. Add 125 ul of media with compound per well.
Cell binding/permeability is calculated in fold-change (Total RFU of treated samples/total RFU of DMSO treated samples or total RFU above background (Total RFU minus total RFU of DMSO treated samples).

Cyclophilin A = target: T1, Cyclophilin A (Homo sapiens, UniProt P62937); test: biochemical; format: binding
T1 construct: made in house
T1 sequence (P62937 whole entry, species assumed): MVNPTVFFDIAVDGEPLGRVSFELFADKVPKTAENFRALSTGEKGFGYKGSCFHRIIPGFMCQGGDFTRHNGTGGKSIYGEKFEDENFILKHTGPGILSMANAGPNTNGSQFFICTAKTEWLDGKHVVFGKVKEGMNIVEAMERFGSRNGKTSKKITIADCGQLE
Experimental: This protocol utilizes Perkin Elmers AlphaLISA technology platform to detect cyclosporine analogues by measuring the inhibition of binding of biotinylated Cyclosporin A to FLAG tagged Cyclophilin A.
Add 20 uL of 6 nM Biotinylated CsA working stock to each well of the 96-well plate. Add 1 uL of test compound (100% DMSO) to each well of the plate using the Janus MTD head and P20 tips (except control wells). Add 1 uL of DMSO to negative control wells and 1 uL of 500 uM Cyclosporin A solution to positive control wells. In the dark, add 20 uL of combined Donor/Acceptor beads to each well. Incubate in the dark for 30 minutes at room temperature. […] Incubate in the dark for 60 minutes at room temperature.

Row | Compound | IC50 (HeLa-Cyclophilin A cells) [nM] | IC50 (Cyclophilin A) [nM]
1 | C/C=C/C[C@@H](C)[C@@H](O)[C@H]1C(=O)N[C@@H](CC)C(=O)N(C)CC(=O)N(C)[C@@H](C(C)C)C(=O)N[C@@H](C(C)C)C(=O)N(C)[C@@H](CC(C)C)C(=O)N[C@@H](C)C(=O)N[C@H](C)C(=O)N(C)[C@@H](CC(C)C)C(=O)N(C)[C@@H](CC(C)C)C(=O)N(C)[C@@H](C(C)C)C(=O)N1C [C40] (cyclo([MeBmt][Abu][Sar][NMeV]V[NMeL]A[dA][NMeL][NMeL][NMeV])) | < 3000 | < 2000
2 | C/C=C/C[C@@H](C)[C@@H](O)[C@H]1C(=O)N[C@@H](CC)C(=O)N(C)CC(=O)N(C)[C@@H](Cc2ccc(OP(=O)(O)O)cc2)C(=O)N[C@@H](C(C)C)C(=O)N(C)[C@@H](CC(C)C)C(=O)N[C@@H](C)C(=O)N[C@H](C)C(=O)N(C)[C@@H](CC(C)C)C(=O)N(C)[C@@H](CC(C)C)C(=O)N(C)[C@@H](C(C)C)C(=O)N1C [C41] (cyclo([MeBmt][Abu][Sar][NMepY]V[NMeL]A[dA][NMeL][NMeL][NMeV])) | > 3000 | < 2000
